Test results from PubChem BioAssay (NCI).
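Growth conditions: 96-well plates. Treatment: test compound, 48 hours, 5 concentrations. Analysis: linear interpolation between bracketing concentrations; unreached endpoints set to highest concentration. GI50 marks 50% less growth. TGI: concentration producing complete growth inhibition.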

Legend:
Assay in all cases: growth of human tumour cells (NCI), 48 h
KM12 colon = tested on: KM12 colon
HS 578T breast = tested on: HS 578T breast
CCRF-CEM leukemia = tested on: CCRF-CEM leukemia
SN12C renal = tested on: SN12C renal
SNB-75 CNS = tested on: SNB-75 CNS
A498 renal = tested on: A498 renal
ACHN renal = tested on: ACHN renal
RPMI-8226 leukemia = tested on: RPMI-8226 leukemia
HL-60(TB) leukemia = tested on: HL-60(TB) leukemia
SNB-19 CNS = tested on: SNB-19 CNS
MALME-3M melanoma = tested on: MALME-3M melanoma
MCF7 breast = tested on: MCF7 breast
SK-OV-3 ovarian = tested on: SK-OV-3 ovarian
HOP-62 NSCLC = tested on: HOP-62 NSCLC
SW-620 colon = tested on: SW-620 colon
DU-145 prostate = tested on: DU-145 prostate
MDA-MB-231 breast = tested on: MDA-MB-231 breast
NCI-H226 lung = tested on: NCI-H226 lung
SF-539 CNS = tested on: SF-539 CNS
NCI-H522 lung = tested on: NCI-H522 lung
COLO 205 colon = tested on: COLO 205 colon
SR leukemia = tested on: SR leukemia
M14 melanoma = tested on: M14 melanoma
HCC-2998 colon = tested on: HCC-2998 colon
TK-10 renal = tested on: TK-10 renal
SK-MEL-2 melanoma = tested on: SK-MEL-2 melanoma

`COCCNCC(O)Cn1c2ccc(Cl)cc2c2cc(Cl)ccc21` (configuration not stated) gave a GI50 (KM12 colon) of 1.9 µM, a TGI (KM12 colon) of 3.42 µM and a GI50 (HS 578T breast) of 1.99 µM. It also gave a TGI (HS 578T breast) of 5.51 µM, a GI50 (CCRF-CEM leukemia) of 1.92 µM and a TGI (CCRF-CEM leukemia) of 4.25 µM. It also gave a GI50 (SN12C renal) of 1.94 µM, a TGI (SN12C renal) of 4.46 µM and a GI50 (SNB-75 CNS) of 1.12 µM. It also gave a TGI (SNB-75 CNS) of 4.15 µM, a GI50 (A498 renal) of 1.73 µM and a TGI (A498 renal) of 5.32 µM. For the same compound, the GI50 (ACHN renal) was 1.87 µM, the TGI (ACHN renal) was 3.76 µM and the GI50 (RPMI-8226 leukemia) was 2.14 µM. For the same compound, the TGI (RPMI-8226 leukemia) was 5.25 µM, the GI50 (HL-60(TB) leukemia) was 2.05 µM and the TGI (HL-60(TB) leukemia) was 4.51 µM. For the same compound, the GI50 (SNB-19 CNS) was 3.48 µM, the TGI (SNB-19 CNS) was 16.6 µM and the GI50 (MALME-3M melanoma) was 1.98 µM. For the same compound, the TGI (MALME-3M melanoma) was 3.89 µM, the GI50 (MCF7 breast) was 1.81 µM and the TGI (MCF7 breast) was 3.49 µM. For the same compound, the GI50 (SK-OV-3 ovarian) was 2.46 µM, the TGI (SK-OV-3 ovarian) was 5.93 µM and the GI50 (HOP-62 NSCLC) was 1.87 µM. For the same compound, the TGI (HOP-62 NSCLC) was 3.45 µM, the GI50 (SW-620 colon) was 1.83 µM and the TGI (SW-620 colon) was 3.64 µM. The GI50 (DU-145 prostate) was 2.12 µM, the TGI (DU-145 prostate) was 4.05 µM and the GI50 (MDA-MB-231 breast) was 1.67 µM. The TGI (MDA-MB-231 breast) was 3.4 µM, the GI50 (NCI-H226 lung) was 2.25 µM and the TGI (NCI-H226 lung) was 5.92 µM. For the same compound, the GI50 (SF-539 CNS) was 1.8 µM, the TGI (SF-539 CNS) was 3.43 µM and the GI50 (NCI-H522 lung) was 2.03 µM. For the same compound, the TGI (NCI-H522 lung) was 3.89 µM, the GI50 (COLO 205 colon) was 2.08 µM and the TGI (COLO 205 colon) was 3.83 µM. It also gave a GI50 (SR leukemia) of 2.98 µM, a TGI (SR leukemia) of 6.92 µM and a GI50 (M14 melanoma) of 2.06 µM. For the same compound, the TGI (M14 melanoma) was 4.16 µM, the GI50 (HCC-2998 colon) was 1.81 µM and the TGI (HCC-2998 colon) was 3.45 µM. The GI50 (TK-10 renal) was 1.79 µM, the TGI (TK-10 renal) was 3.37 µM and the GI50 (SK-MEL-2 melanoma) was 2.16 µM. The TGI (SK-MEL-2 melanoma) was 4.18 µM.
